In EP0129461B1, “Derivatives of isoindoledicarboxylic acids, their preparation and pharmaceutical compositions thereof” (ADIR, priority 1983, dated 1984):

test system: angiotensine convertase; assay: Inhibition of circulating angiotensin convertase in the anaesthetised rat (protocol of D.M. Gross et al.), i.v. dosing; assay type: in vivo; details: I.V. dose inhibiting 50% of the activity of the angiotensine convertase present in the circulation
Source text: Les composés de l'invention ont été soumis à une étude pharmacologique chez le rat anesthésié selon le protocole décrit par D.M. GROSS et coll. [J. Phar- macol. and Exp. Ther. 216, 552-557, 1981 )].
La dose I.V. capable d'inhiber 50% de l'activité de l'angiotensine convertase présente dans la circulation (DE50) a été déterminée.

SMILES	DE50
CCC[C@H](N[C@@H](C)C(=O)N1CC2CCCCC2[C@@H]1C(=O)O)C(=O)OCC (stereo partly drawn) [Exemple IV, [N-<(S)-éthoxycarbonyl-1 butyl>-(S)alanyl]-2 (R)-carboxy-1 perhydroisoindole]	>300 mg/kg
CCC[C@H](N[C@@H](C)C(=O)N1Cc2ccccc2[C@H]1C(=O)O)C(=O)OCC [Exemple I]	0,022 mg/kg
CCC[C@H](N[C@@H](C)C(=O)N1Cc2ccccc2[C@@H]1C(=O)O)C(=O)OCC [II, (N-((S)-éthoxycarbonyl-1 butyl)-(S)alanyl]-2 (R)-carboxy-1 isoindoline]	0,170 mg/kg
CCC[C@H](N[C@@H](C)C(=O)N1CC2CCCCC2[C@H]1C(=O)O)C(=O)OCC (stereo partly drawn) [III, [N-<(S)-éthoxycarbonyl-1 butyl)-(S) alanyl]-2 (S)-carboxy-1 perhydroisoindole, maléate]	0,020 mg/kg
